For assay [1], the system named is splenocytes from double transgenic mice. Nature of the assay: Induction of tolerance with Apitope MS7 in HLA:DR2 / TCR MBP 82-100 double-transgenic mice, splenocyte proliferation. Type of assay: in vivo. How it is done:
(§1) Groups of 6 or 7 age (8-12 weeks) and sex matched double transgenic mice were used. In the first experiment one group was treated ten times intranasally with 100 μg Apitope MS7 in […] at regular intervals over a period of three weeks. The control group received PBS alone. In the second experiment the same amount of peptide was given by subcutaneous/intradermal administration in […] PBS. The control group received the same volume of PBS.
Three days after the last administration of peptide or PBS, the spleens were harvested and cell suspensions prepared. The splenocytes were incubation with 0.5 or 5 μg/ml Apitope MS7, and assessed for proliferation by [^3H]-Thymidine incorporation after 48, 72 and 96 hours of culture. Results are expressed as stimulation indices (SI=counts per minute (cpm) of culture containing antigen/counts per minute without antigen).

For another assay, the system named is HLA-DR2. The assay is described as follows: HLA-DR2 binding of cocktail peptides. The arrangement: species or system human.
Assay [2] relates to MBP-specific T cell clones. Nature of the assay: T cell clone (TCC) proliferation assay, fine mapping of MBP epitopes. Type of assay: cell-based, human. To be noted: TCC from MS patients and healthy individuals, proliferative response. Here is the method: MBP-specific T cell lines (TCL) are generated from 8 MS patients and 2 healthy control donors. PBMC from each subject are separated as described above and plated out at 1×10^6 cells/ml in 6-well plates in the presence of MBP (50 μg/ml); a portion of PBMC from each subject is regularly frozen and stored for subsequent restimulations. Seven days later the cells are fed with fresh medium containing 2% IL-2 (Lymphocult-HT; Biotest LTD., Birmingham, UK), and on day 12 of culture all cells are restimulated with antigen, IL-2 and irradiated (2500 Rad) autologous PBMC as a source of antigen presenting cells (APC), at a cell ratio of 1T cell:5 APC. Cells are expanded in IL-2 every 3-4 days, and on day 14 are restimulated with antigen, IL-2 and PBMC, as described above. On the day of the first restimulation cells are examined for specific proliferation to MBP. Briefly, 2×10^4 T cells and 1×10^5 irradiated autologous PBMC are cultured in triplicate, in 96-well round-bottom plates, in the presence of MBP. Cells are cultured for 2 days and pulsed with (^3H)-Thymidine at 0.4 μCi/well during the last 18 hours of the culture. Cells are then harvested as described above, and a TCL is considered to be MBP-specific with a δcpm>1000 and a SI>3.
Following 3 restimulation/expansion cycles TCL are cloned using PHA (Sigma, Poole, Dorset, UK)) in the presence of autologous irradiated PBMC as APC. T cells are plated under limiting dilution conditions at 0.1 cell/well, 0.3 cell/well and 1 cell/well and cultured in Terasaki plates (Nunc International, Costar) with 1×10^4 irradiated PBMC, 5 μg/ml PHA, and 2% IL-2. After 10-12 days, growth-positive wells are expanded onto 96-well round-bottom plates, using 1×10^5 irradiated PBMC, 5 μg/ml PHA and IL-2. Three days later wells are fed with fresh medium containing IL-2, and on day 7 the clones are expanded onto 48-well plates using 5×10^5 irradiated PBMC, PHA and IL-2; at this point clones are tested in proliferation assays for specific responses to MBP. MBP-specific clones are expanded a week later onto 24-well plates, using 1×10^6 irradiated PBMC with PHA or Dynabeads (Dynal, UK) and IL-2. The clones are maintained in 24-well plates using a 7-10 day restimulation/expansion cycle, essentially as described above. The ability of T cell clones (TCC) to recognize the panel of MBP peptides is tested by proliferation assays, as described above.
TCC are generated from 8 MS patients and 2 healthy individuals, and used to clarify the fine specificity of the peptide regions identified in the kinetic response assay. The specificity of each TCC is tested by its proliferative response to the panel of 15-mer peptides. Clone SD:A7 recognised region 1-24, and within this region this TCC responded to a.a. 5-19. Region 30-54 is recognised by 4 clones (MS49:D3, MS49:C8, MS49:A8, MS49:B6) and the epitope within this region is 30-44. […] Five clones (MS43:A7, MS41:B6, MS41:A2, MS41:C6, N5:8) recognize a.a. 83-99 which is contained in region 75-99. One patient produced TCC specific for a.a. 110-124 (MS60:A2, MS60:B3), contained within the 105-129 pool, and another TCC from the same patient is specific to 130-144 (MS60:E1), found within the 120-144 region. Five individuals produce clones which recognize epitopes within the region 135-159: MS60:F7, MS60:D1, MS59:F1 and N5:19 recognizes a.a. 140-154; MS57:A1 is specific to 140-149, and TCC MS17:A3 responds to sequence 130-144. […] Lastly, region 150-170 is recognized by 2 clones specific to a.a. 156-169.

Assay [3] concerns fixed Mgar (HLA-DR2+ve) APC presenting to T cells from DR2:MBP 82-100 transgenic mouse. The assay is described as follows: Antigen-presentation assay using an APIPS (fixed APC) with T cells from DR2:MBP82-100 transgenic mouse. Type of assay: cell-based. Particulars: live or p-formaldehyde-fixed Mgar cells, 72 h. Here is the method: Presentation of peptides to T cells isolated from DR2:MBP82-100 transgenic mouse was essentially as described above except APC were plated at 5×10^5 cells per well, T cells were plated at 1×10^5 cells per well, and incubation was allowed to proceed for 72 h prior to the addition of [^3H]-thymidine.
(§2) For any given epitope, there may exist one or more apitopes, capable of being presented to APC without further processing. The presence of apitopes within two regions of MBP is investigated by incubating live or p-formaldehyde-fixed Mgar (HLA-DR2+ve) cells are incubated with overlapping peptides in serum from MBP regions 77-100 (FIG. 12) and 125-148 (FIG. 13) or in serum alone. T cells were added and after 72 h (FIG. 12) or after 48 h (FIG. 13) the T cell proliferative response was measured by ^3H-thymidine uptake. For MBP 77-100, the T cells are isolated from a DR2:MBP 82-100 transgenic mouse, whereas for MBP 130-144 the T cell clone MS17:A3 is used.

The subject of assay [4] is splenocytes from double transgenic mice. Nature of the assay: Induction of tolerance with Apitope MS7 in double-transgenic mice, splenocyte cytokine ELISA. Type of assay: in vivo. To be noted: 48 hr cultures; subcutaneous/intradermal treatment vs PBS. Here is the method: as §1
In the second experiment, where tolerance induction was induced via the subcutaneous/intradermal route, cell culture supernatants from the splenocytes were collected at 48 and 72 hrs of culture, and assayed for the presence of IFN-γ and interleukin-2 (IL-2) using an enzyme linked immunosorbant assay (ELISA).
In general terms: An ELISA detects its analyte on a solid surface through an enzyme-linked reagent.

For assay [5], the system named is lymphocytes from HLA:DR2 (DRB1*1501) transgenic mice. Nature of the assay: Induction of tolerance with Apitope MS6 in HLA:DR2 transgenic mouse, lymph node cell proliferation. Type of assay: in vivo. Here is the method: HLA:DR2 transgenic mice aged 8-12 weeks were used in the study. The mice were tolerized by pre-treatment with 100 μg of Apitope MS6 in […] phosphate buffered saline (PBS) or […] alone, by intranasal administration on days −8, −6 and −4 prior to immunisation on day 0.
Following tolerization, mice were immunised subcutaneously with […] an emulsion containing an equal volume of Complete Freund's Adjuvant (CFA) and PBS containing 200 μg of Apitope MS6 and 400 μg heat-killed Mycobacterium tuberculosis. A control group of mice, previously tolerized with PBS intranasally, were immunised without peptide.
At 10 days post subcutaneous immunisation, draining popliteal and inguinal lymph nodes were removed and T-cell activation was assessed by assaying the proliferation of T-cells in response to various concentrations of Apitope MS6. Proliferation was measured by [^3H]-Thymidine incorporation, and expressed as the stimulation index (SI=corrected counts per minute (ccpm) culture containing peptide/ccpm culture without peptide).

Assay [6] has as its system MHC class I or II molecule. Particulars: cited from earlier work.
For a further assay, the system named is HLA-DQ6. The assay is described as follows: Antigen presentation assay, HLA-DQ6 transfected L-cells. Type of assay: cell-based, human. An excerpt:
MBP peptides 30-44, 130-144 and 139-153 were synthesized using L-amino acids and standard F-moc chemistry on an Abimed AMS 422 multiple peptide synthesiser.
L-cells transfected with either HLA-DQ6, HLA-DR2a or HLA-DR2b, or Mgar cells (EACC, Porton Down, UK) which express HLA-DQ, DP and DR were used as APCs.
T-cell clones MS 49:D3 and MS17:A2 were generated from MS patients and clone N5:19 was generated from a normal individual. All three clones were DR2 positive.
Antigen presenting cells were incubated with the various concentrations of peptide and the appropriate T-cells. Proliferation, and therefore activation, of the T-cells was measured by [^3H]-Thymidine incorporation, and expressed as the stimulation index (SI=corrected counts per minute (ccpm) culture containing peptide/ccpm culture without peptide).

Assay [7] has as its system fixed Mgar (HLA-DR2+ve) APC presenting to T cell clones. The assay is described as follows: Antigen-presentation assay using an APIPS (fixed APC) with human T cell clones. Type of assay: cell-based. Particulars: fixed vs live APC, T cell clone proliferation. How it is done: Presentation of the peptides to T cell clones is measured by proliferation. APC are fixed in 0.5% paraformaldehyde and plated at 1×10^5 cells per well of a 96-well tissue culture plate. T cells clones are plated at 2×10^4 cells per well in the presence of varying concentrations of peptide. After incubation for 48 h at 37° C., proliferation is measured by [^3H] thymidine incorporation over 16-20 h. Results are compared with the ability of T cells to respond to the epitope presented by live APC.
In order to investigate whether various MBP peptides are apitopes, their capacity to be presented to T-cells by fixed APC is investigated. Live or […] Mgar (HLA-DR2+ve) cells are pre-pulsed with the peptide in serum, or serum alone for 3.5 hours. Excess peptide is then removed from cells and the appropriate T cell clone added. The T cell proliferative response is measured by ^3H-thymidine uptake.
as §2

For assay [8], the system named is 81-111-responsive T-cell line and sub-lines. The assay is described as follows: Reactivity of T cell lines and clones from peptide-primed mice to MBP 81-111 region peptides. Particulars: six clones generated. Type of assay: cell-based. How it is done:
In order to investigate T cell reactivity to the 81-111 region of MBP, lymph node cells from mice primed with 81-111 are stimulated with 81-111 in vitro and these cells are tested with a panel of overlapping 10-mer peptides with two residue shifts covering the 81-111 region (namely: 81-90, 83-92, 85-94, 87-96, 89-98, 91-100, 93-102, 95-104, 97-106, 99-108 and 101-111). The response pattern to peptides covering the 89-101 show stimulatory capacity for 5 adjacent peptides (N terminal 87-96 through to 95-104) reflecting the presence of at least two (and perhaps three) distinct epitopes.
In order to investigate this region further, three sub-lines are generated from the original 81-111-responsive T-cell line and these are retested with a panel of overlapping 10-mer peptides with one residue shift covering the 84-106 region. The results reveal the existence of three distinct but overlapping T cell epitopes within the 89-101 sequence: 89-94, 92-98 and 95-101 (see FIG. 14).

“Also recorded” adds a separate entry of the source.

For the substance “H-Glu-Asn-Pro-Val-Val-His-Phe-Phe-Lys-Asn-Ile-Val-Thr-Pro-Arg-Thr-Pro-NH2 (H-ENPVVHFFKNIVTPRTP-NH2) [MBP 83-99]”, the “mean SI of splenocyte proliferation, intranasal treatment” value in assay [1] (72 hrs, cultures with 5 μg/ml 83-99, PBS control mean SI 89) came out at 17. Besides, the “mean SI of splenocyte proliferation, subcutaneous treatment” value in assay [1] (PBS treated animals mean SI 124) was 49. Moreover, in assay [1] (intranasal and subcutaneous/intradermal), the “splenocyte proliferation after treatment, both routes” value is “striking reduction in proliferation”. Further, in the assay with HLA-DR2, the HLA-DR2 binding entry was “HLA-DR2 binding”. The “T cell clones (TCC) recognising the peptide” value in [2] is recorded as “Five”. The “apitope within MBP region 77-100” value in [3] is on record as “shown to act as apitopes”. Further, in assay [4], the “IFNγ secretion in splenocyte culture supernatants” value is “impressive reduction in secretion” and the “IL-2 secretion in splenocyte culture supernatants” value is given as “impressive reduction in secretion”.
As to “H-Gly-Phe-Lys-Gly-Val-Asp-Ala-Gln-Gly-Thr-Leu-Ser-Lys-Ile-Phe-NH2 (H-GFKGVDAQGTLSKIF-NH2) [MBP 140-154]”, in the assay with HLA-DR2, the HLA-DR2 binding result is reported as “HLA-DR2 binding”. The “SI median of lymphocyte proliferation after intranasal pre-treatment” value in assay [5] (Group B, 100 μg intranasal days -8, -6, -4, recall peptide 150 μg/ml (PBS group SI median 2.5 to 10)) was determined as 3. Further, the “tolerance induction in lymphocytes from HLA-DR2 mice” value in assay [5] (intranasal pre-treatment) is listed as “has induced tolerance”. Further, the entries for the “T cell clones (TCC) recognising the peptide” value in assay [2] and in assay [2] (listed as 140-154) were “responded” and “recognizes”, respectively. The “identified as apitope in WO 03/064464” value in assay [6] is recorded as “apitopes”.
“H-Pro-Arg-His-Arg-Asp-Thr-Gly-Ile-Leu-Asp-Ser-Ile-Gly-Arg-Phe-NH2 (H-PRHRDTGILDSIGRF-NH2) [MBP 30-44]”: the “T cell clones (TCC) recognising the peptide” value in assay [2] is 4. For the same substance, the HLA-DQ6 binding result in the assay on HLA-DQ6 is “HLA-DQ6 binding”. In the assay on HLA-DQ6 (T-cell clone MS 49:D3, highest peptide concentration), the “proliferative response versus Mgar control cells” value is 1.5 fold. Further, the “presentation by fixed APC without further processing (apitope)” value in [7] is “shown to act as apitopes; also recorded: found to be apitopes; also recorded: can be presented by fixed APC without further processing”.
Take “MBP 92-98: cryptic T cell epitope within MBP 89-101 (IRLFSRD; UniProt P02686 92-98, looked up, fragment)”: the “T cell clones from mice primed with the 89-101 peptide responding” value in assay [8] is “all six clones”.

(Values after US8961986B2, “Peptide composition” (Apitope Technology (Bristol) Limited, priority 2000, dated 2015).)
